Measured values from patent publication US9446007B2, “Methods for maintaining or improving health, well-being and/or a physiological function in a subject” (DYNAMIS THERAPEUTICS, INC., priority 2012, dated 2016).

Tests used:
[1] = Effects of meglumine in a human subject (Example 10); type: in vivo; conditions: person
Experimental: A person, suffering from scleroderma and type 2 diabetes, overweight and with difficulty to lose through dieting and exercise, experiencing less energy than when younger, was administered meglumine hydrochloride (500 mg to 2000 mg) orally almost every day over 5 years.

[2] = Effects of meglumine in a human subject (Example 6); type: in vivo; conditions: orally daily, one month
Excerpt: A person suffering from high blood pleasure was orally administered meglumine hydrochloride on a daily basis over the period of one month.

[3] = Effects of meglumine in a human subject (Example 11): blood lipids, lipoproteins, inflammation markers; type: in vivo; conditions: person, type 2 diabetes, 3×500 mg orally, with metformin
Experimental: A person, suffering from type 2 diabetes, overweight (height of 5 feet 1 inch, and weight of 129 pounds, as of month 0) and with difficulty to lose weight through dieting and exercise, was administered meglumine hydrochloride (3×500 mg) orally over the period of 8 months. Over the duration of the study the subject was also administered metformin orally to manage their type 2 diabetes. The subject's blood was analyzed for lipids, lipoprotein particles and apolipoproteins, and inflammation/oxidation markers.

[4] = Effects of meglumine in a human subject (Example 8); type: in vivo; conditions: overweight person, 500-1,500 mg orally daily, 14 months
Experimental: A person was overweight and suffering from fatty liver, experienced sore joints, lacked energy and required extended recovery time after exercise & travel, was orally administered 500-1,500 mg of meglumine hydrochloride on a daily basis over the period of 14 months.

[5] = system: albumin/creatinine ratio; test: Urinary albumin/creatinine; type: in vivo, KK.Cg-A^y/+/J and KK.Cg-A^+/+/J mice; conditions: 18 mM in drinking water, 12 weeks, not significant
Experimental: Urinary creatinine and albumin levels were measured in KK.Cg-A^y/+/J “mutant” diabetic mice and KK.Cg-A^+/+/J “control” mice treated with or without 18 mM meglumine hydrochloride in the drinking water for 12 weeks.

[6] = Effects of meglumine in a human subject (Example 5); type: in vivo; conditions: person, 500-1,500 mg orally daily over 5 years
Experimental: A person suffering from right knee joint pain, and otherwise in good health, was orally administered 500-1,500 mg of meglumine hydrochloride on a daily basis over the period of 5 years (with two months off).

[7] = Effects of meglumine in a human subject (Example 7); type: in vivo; conditions: person on a blood thinner; orally daily, 1 month
Excerpt: A person on a blood thinner medication was orally administered meglumine hydrochloride on a daily basis over the period of 1 month.

[8] = Effects of meglumine in a human subject (Example 9); type: in vivo; conditions: orally daily, 7 months
Excerpt: A person suffering from high blood sugar was orally administered meglumine hydrochloride on a daily basis over the period of 7 months.

[9] = system: triglyceride; test: Serum triglyceride levels; type: in vivo, KK.Cg-A^y/+/J diabetic mice; conditions: 18 mM in drinking water for 32 weeks; n=9; control 752.21±201.29; p<0.001
Experimental: Serum triglyceride levels were measured in KK.Cg-A^y/+/J diabetic mice treated with 18 mM meglumine hydrochloride in the drinking water for 32 weeks. […] A t-test was used to compare the mean values and a p<0.001 was calculated, indicating the decrease in plasma triglycerides in the meglumine treated mice is statistically significant.

[10] = 500 mg to 2000 mg orally over 5 years

Q: What does the source list for `CNC[C@H](O)[C@@H](O)[C@H](O)[C@H](O)CO.Cl` [meglumine hydrochloride]?
A: weight lost ([1]; scleroderma and type 2 diabetes, 500 mg to 2000 mg orally almost every day, first two and one half years): over 30 pounds; insulin and creatine/albumin levels ([1]; type 2 diabetes, 500 mg to 2000 mg orally over 5 years): normal; blood glucose level ([1]; type 2 diabetes, minimum dose of 500 mg three times a day): improved; HDL levels ([1]; 500 mg to 2000 mg orally): stayed the same; Lp-PLA level ([1]; 500 mg to 2000 mg orally): went down; fibrinogen homocysteine levels ([1]; 500 mg to 2000 mg orally): stayed the same; eye sight [1, 10]: improved; mental capacity [1, 10]: has not deteriorated; overall energy levels [1, 10]: increased; overall skin tone and texture [1, 10]: improved; CRP level ([1]; 500 mg to 2000 mg orally, from 0.58): < 0.3; LDL level ([1]; 500 mg to 2000 mg orally, from 209, within the last 16 months): 160 mg/dL; cholesterol levels ([1]; 500 mg to 2000 mg orally, from 300, without diet change or any medicines): 265 mg/dL; blood pressure ([2]; person with high blood pressure, reduced from 220/110): around 130/78; sleep and energy ([2]; person): better sleep and felt more energetic; body weight ([2]; person, at least one dress size): weight loss; Apo B:Apo A-I ratio (calculated) ([3]; month 8 (month 0: 0.73)): 0.45; Lp(a) mass ([3]; month 8 (month 0: 5)): 6 mg/dL; HDL2-C ([3]; month 8 (month 0: 19)): 22 mg/dL; % sdLDL-C (calculated) ([3]; month 8 (month 0: 35)): 25%; HDL-P ([3]; month 8 (month 0: 44.3)): 43.7 μmol-L; sdLDL-C ([3]; month 8 (month 0: 56)): 28 mg/dL; Lipids: HDL-C ([3]; month 8 (month 0: 69)): 71 mg/dL; Apo B ([3]; month 8 (month 0: 133)): 79 mg/dL; Lipids: triglycerides ([3]; month 8 (month 0: 135)): 82 mg/dL; Lp-PLA2 ([3]; month 8 (month 0: 152)): 172 ng/mL; Lipids: LDL-C direct ([3]; month 8 (month 0: 160)): 111 mg/dL; Apo A-I ([3]; month 8 (month 0: 183)): 176 mg/dL; Lipids: non-HDL-C (calculated) ([3]; month 8 (month 0: 196)): 134 mg/dL; Lipids: total cholesterol ([3]; month 8 (month 0: 265)): 205 mg/dL; fibrinogen ([3]; month 8 (month 0: 332)): 334 mg/dL; LDL-P ([3]; month 8 (month 0: 2,250)): 1,529 nmol/L; hs-CRP ([3]; month 8 (month 0: <0.3)): 0.3 mg/L; mental capacity [4]: increased mental capacity; muscle strength [4]: improved muscle strength; nail and hair health [4]: improvement in nail and hair health; sexual stamina and sexual performance [4]: improved sexual stamina and sexual performance; skin condition [4]: improved; vitality or energy levels [4]: improved vitality or energy levels; weight lost per month [4]: approximately 0.5 kg; body weight on average ([4]; from 108 kg): 102 kg; urinary albumin/creatinine ratio ([5]; KK.Cg-A^+/+/J control mice, without meglumine 2.5±1.2): 1.6±1.8; urinary albumin/creatinine ratio ([5]; KK.Cg-A^y/+/J mutant diabetic mice, without meglumine 17.3±15.4): 12.4±8.7; body weight [6]: overall weight loss/control effect; increase in arm diameter [6]: 1 inch; mental capacity [6]: increased mental capacity; muscle-to-fat index [6]: increase in muscle-to-fat index; sexual stamina and sexual performance [6]: improved sexual stamina and sexual performance; skin condition [6]: improved; vitality or energy levels [6]: improved vitality or energy levels; military press weights ([6]; from 200 lb): 355 lb; need for blood thinner medication [7]: able to discontinue the use of the blood thinner; blood glucose level ([8]; person with high blood sugar, decrease from 202): 75 mg/dL; weight loss ([8]; person with high blood sugar, without regain): 25 pounds; mental capacity ([8]; person): increased mental capacity; nail and hair health ([8]; person): improvement in nail and hair health; sexual stamina and sexual performance ([8]; person): dramatically improved sexual stamina and sexual performance; skin condition ([8]; person): improved; vitality or energy levels ([8]; person): improved vitality or energy levels; serum triglyceride levels [9]: 322.66 ± 158.85 mg/dL
